Data on one compound can be found in patent US8492087B2, “Method of judging risk for onset of drug-induced granulocytopenia” (Otsuka Pharmaceutical Co., Ltd., priority 2003, dated 2013).

This series deals with human IRS-2 gene. The series can be described thus: Association analysis of human IRS-2 gene polymorphisms and granulocytopenia induced by vesnarinone administration. Conditions: subjects who had received vesnarinone. The class given is in vivo. The text has this:
In order to find genetic polymorphisms in relation to granulocytopenia attributed to drug administration, there were employed subjects who had received vesnarinone (3,4-dihydro-6-[4-(3,4-dimethoxybenzoy1)-1-piperaziny1]-2(1H)-quinoline).
Among subjects who had received vesnarinone, had orally agreed to cooperate with investigation of the cause for vesnarinone-induced granulocytopenia between May 1991 and October 1996, and had accepted to provide a blood sample, there were employed 84 subjects (male/female ratio=1.21:1) who had again agreed in writing to cooperate with genetic analysis according to ethical guidelines between July 2001 and December 2001. Genomic DNA was extracted from a blood sample (or a cell sample derived therefrom) of each of the subjects who had again agreed described above. through a common method, and was employed for the below-described tests.
Among the subjects, subjects having leukocytes or neutrophils which were decreased to half or less following vesnarinone administration, and having the number of leukocytes of 2,000/mm^3 or less, or the number of neutrophils of 1,000/mm^3 or less were classified as “subjects with granulocytopenia”.
Each of these groups was further classified into two groups according to sex, to thereby become four subgroups; i.e., a group of 13 male with granulocytopenia (group A), a group of 17 female with granulocytopenia (group B), a group of 33 male without granulocytopenia (group C), and a group of 21 female without granulocytopenia (group D).
The allele frequencies in the group of subjects with granulocytopenia were compared to that of subjects without granulocytopenia by the contingency χ square test. The odds ratio was estimated through the Brown method (Brown, C. C., Am. J. Epidemiol., 113: 474-480 (1981)). The 95% confidence interval of odds ratio was calculated through the Woolf method.
In order to determine the genotype distribution, all polymorphisms identified by the discovery above were analyzed in the all subjects described in Example 1 by amplifying the regions containing the polymorphisms with primer sets and sequencing the PCR products under the condition described above.
In addition to the statistical methods employed in Example 1, a pair-wise linkage disequilibrium coefficient (D′=D/Dmax or D/Dmin) was calculated by use of the method by Thompson, et al. (Thompson, E. A., et al., Am. J. Hum. Genet. 42: 113-124 (1988))

As to `COc1ccc(C(=O)N2CCN(c3ccc4c(c3)CCC(=O)N4)CC2)cc1OC` [vesnarinone, 3,4-dihydro-6-[4-(3,4-dimethoxybenzoy1)-1-piperaziny1]-2(1H)-quinoline], the “subjects with agranulocytosis N (%)” value runs as follows: (IRS-2 A15870G genotype AA, total 27) 10 (37.0) N (%); (IRS-2 A15870G genotype AG + GG, total 27) 17 (63.0) N (%); (IRS-2 A29793G genotype AA, total 30) 11 (36.7) N (%); (IRS-2 A29793G genotype AG + GG, total 30) 19 (63.3) N (%); (IRS-2 A-1164C genotype AA, total 30) 8 (26.7) N (%); (IRS-2 A-1164C genotype AC + CC, total 30) 22 (73.3) N (%). The “subjects with agranulocytosis N (%)” value runs as follows: (IRS-2 AT-2510del genotype AT, total 29) 7 (24.1) N (%); (IRS-2 AT-2510del genotype ATdel + del, total 29) 22 (75.9) N (%); (IRS-2 C31532del genotype CC, total 27) 9 (33.3) N (%); (IRS-2 C31532del genotype Cdel + del, total 27) 18 (66.7) N (%); (IRS-2 C-4587A genotype CA + AA, total 28) 21 (75.0) N (%); (IRS-2 C-4587A genotype CC, total 28) 7 (25.0) N (%). The “subjects without agranulocytosis N (%)” value is, setting by setting: (IRS-2 A15870G genotype AA, total 49) 36 (73.5) N (%); (IRS-2 A15870G genotype AG + GG, total 49) 13 (26.5) N (%); (IRS-2 A29793G genotype AA, total 53) 39 (73.6) N (%); (IRS-2 A29793G genotype AG + GG, total 53) 14 (26.4) N (%); (IRS-2 A-1164C genotype AA, total 49) 29 (59.2) N (%); (IRS-2 A-1164C genotype AC + CC, total 49) 20 (40.8) N (%). Also, the “subjects without agranulocytosis N (%)” value by setting is: (IRS-2 AT-2510del genotype AT, total 49) 28 (57.1) N (%); (IRS-2 AT-2510del genotype ATdel + del, total 49) 21 (42.9) N (%); (IRS-2 C31532del genotype CC, total 48) 34 (70.8) N (%); (IRS-2 C31532del genotype Cdel + del, total 48) 14 (29.2) N (%); (IRS-2 C-4587A genotype CA + AA, total 49) 20 (40.8) N (%); (IRS-2 C-4587A genotype CC, total 49) 29 (59.2) N (%).
